{
  "source": "paper PMC12703677",
  "about": "“Discovery of a Copper-Binding Carbohydrate-Binding Module Regulating the Activity of Lytic Polysaccharide Monooxygenases” (Journal of the American Chemical Society, 2025)",
  "key": {"[1]": {"target": "T1, ScLPMO10C (ScLPMO10C^(MMH)) (Streptomyces coelicolor, UniProt Q9RJY2)", "T1 construct": "gene celS2; full-length mature AA10-linker-CBM2, native signal peptide replaced by SmLPMO10A signal peptide (cleaved; N-terminal His35), E. coli periplasm, untagged, Cu(II)-loaded", "T1 sequence (Q9RJY2 entry or part of it)": "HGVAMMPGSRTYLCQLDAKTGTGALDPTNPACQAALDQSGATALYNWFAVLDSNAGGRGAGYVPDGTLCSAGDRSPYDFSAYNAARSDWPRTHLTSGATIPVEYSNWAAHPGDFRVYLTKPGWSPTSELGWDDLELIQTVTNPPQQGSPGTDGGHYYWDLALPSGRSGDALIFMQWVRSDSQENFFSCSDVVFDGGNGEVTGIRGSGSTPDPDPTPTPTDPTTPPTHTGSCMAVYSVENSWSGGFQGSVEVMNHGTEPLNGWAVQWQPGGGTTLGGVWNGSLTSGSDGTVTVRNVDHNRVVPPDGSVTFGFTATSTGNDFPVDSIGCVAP", "assay": "fluorescence stopped-flow, single-turnover reduction of LPMO-Cu(II)", "assay_type": "biochemical", "settings": "reductant; 50 mM sodium phosphate pH 6.0, 25 °C, anaerobic, no polysaccharide; second-order rate constant only, no Km"}, "[2]": {"target": "T2, ScAA10 (CD; catalytic domain of ScLPMO10C) (Streptomyces coelicolor, UniProt Q9RJY2)", "T2 construct": "gene celS2; N-terminal His35), SmLPMO10A signal peptide cleaved, E. coli periplasm, untagged, Cu(II)-loaded", "T2 sequence (Q9RJY2 entry or part of it)": "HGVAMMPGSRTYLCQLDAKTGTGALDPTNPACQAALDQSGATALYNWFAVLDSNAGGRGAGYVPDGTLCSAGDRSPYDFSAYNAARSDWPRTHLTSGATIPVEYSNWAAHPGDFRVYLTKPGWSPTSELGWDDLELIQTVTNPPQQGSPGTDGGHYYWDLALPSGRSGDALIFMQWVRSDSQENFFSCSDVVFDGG", "assay": "fluorescence stopped-flow, single-turnover reduction of LPMO-Cu(II)", "assay_type": "biochemical", "settings": "reductant; 50 mM sodium phosphate pH 6.0, 25 °C, anaerobic, no polysaccharide; second-order rate constant only, no Km"}},
  "data": [
    {"smiles": "O=C1O[C@H]([C@@H](O)CO)C(O)=C1O", "note": "[ascorbic acid]", "values": [
      {"measurement": "k AscA", "setting": "[1]", "value": "the two variants exhibited identical reduction rates"},
      {"measurement": "k AscA", "setting": "[2]", "value": "the two variants exhibited identical reduction rates"}
    ]}
  ]
}
